Values after ≈ are worked out from the molar mass of the structure shown. Where two headings read alike, the source gives them in different places.
Experiments:
C. haemulonii complex = experiment: Planktonic growth, overall across all nine isolates; type: cell-based, Candida haemulonii complex; conditions: for MIC: read-out: Overall GM-MIC; for effect on planktonic fungal growth/viability (in words): nine clinical isolates, 0.0625-32 mg/L
Summary of the method: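 Pooled figure: geometric mean of MICs from all nine complex isolates. Individual MICs came from 48 h, 37°C RPMI 1640 microdilution cultures (CLSI M27-A3, 0.0625-32 mg/L), judged by eye as no growth; DMSO vehicle dilutions ran alongside.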

[1] = test system: Candida haemulonii complex; experiment: Biofilm-growing cells, overall across isolates; type: cell-based; conditions: geometric mean across strains, values marked * do not include LIP Ch4 (>512)
Summary of the method: (§1)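 Compounds, tested at the concentrations of the planktonic assays, were applied for 48 h at 37°C to 48 h-old biofilms after PBS washing. Inhibition was judged from XTT reduction, with bMIC as the minimal concentration giving 50% inhibition.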

[2] = Mammalian cell toxicity (MTT assay) and selectivity index; type: cell-based, Human; conditions: human, A549 cells (human lung adenocarcinoma); MTT, 48 h incubation
Summary of the method: (§2)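 A549 cells were exposed to compounds (0.0313–512 μg/mL) in DMEM for 48 h at 37 °C, 5% CO2. Viability was measured by MTT (3 h, dark), with formazan dissolved in DMSO and read at 450 nm. CC50 was derived, and SI calculated as A549 CC50 divided by C. haemulonii complex GM-MIC.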

Candida haemulonii [3] = experiment: Biofilm-growing cells, XTT assay, bMIC; type: cell-based; conditions: for GM-bMIC: geometric mean, C. haemulonii isolates, values marked * do not include LIP Ch4 (>512); for bMIC: mature biofilm, 48 h, 50% inhibition of metabolic activity
Summary of the method: as §1

Candida duobushaemulonii [4] = experiment: Biofilm-growing cells, XTT assay, bMIC; type: cell-based; conditions: for GM-bMIC: geometric mean, C. duobushaemulonii isolates; for bMIC: mature biofilm, 48 h, 50% inhibition of metabolic activity
Summary of the method: as §1

[5] = test system: Candida haemulonii var. vulnera; experiment: Biofilm-growing cells, XTT assay, bMIC; type: cell-based; conditions: for GM-bMIC: geometric mean, C. haemulonii var. vulnera isolates; for bMIC: mature biofilm, 48 h, 50% inhibition of metabolic activity
Summary of the method: as §1

Candida haemulonii [6] = experiment: Planktonic growth, broth microdilution (CLSI M27-A3), MIC; type: cell-based
Summary of the method: (§3)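 Clinical isolates (nail, blood, urine) grown 48 h at 37°C in Sabouraud-dextrose, then tested by CLSI M27-A3 broth microdilution in RPMI 1640 over 0.0625-32 mg/L, 48 h at 37°C. MIC is the lowest concentration with no visible growth; geometric mean MIC calculated across all isolates.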

Candida duobushaemulonii [7] = experiment: as above; type: cell-based
Summary of the method: as §3

[8] = test system: Candida haemulonii var. vulnera; experiment: as above; type: cell-based
Summary of the method: as §3

A549 cells = experiment: Mammalian cell toxicity (MTT assay) and selectivity index; type: cell-based, Human; conditions: MTT, 48 h incubation
Summary of the method: as §2

[9] = Candidozyma haemuli, geometric mean across all nine strains, in μM
[10] = Candidozyma haemuli, geometric mean across all nine strains
[11] = Candidozyma haemuli, 48 h, isolate LIP Ch4, planktonic, 48 h, 37°C, read-out: MIC
[12] = Candidozyma haemuli, 48 h, isolate LIP Ch7, planktonic, 48 h, 37°C, read-out: MIC
[13] = Candidozyma haemuli, 48 h, isolate LIP Ch12, planktonic, 48 h, 37°C, read-out: MIC
[14] = Candidozyma haemuli, geometric mean of three C. haemulonii isolates, read-out: GM-MIC
[15] = Candidozyma duobushaemuli, 48 h, isolate LIP Ch1, planktonic, 48 h, 37°C, read-out: MIC
[16] = Candidozyma duobushaemuli, 48 h, isolate LIP Ch6, planktonic, 48 h, 37°C, read-out: MIC
[17] = Candidozyma duobushaemuli, 48 h, isolate LIP Ch8, planktonic, 48 h, 37°C, read-out: MIC
[18] = Candidozyma duobushaemuli, geometric mean of three C. duobushaemulonii isolates, read-out: GM-MIC
[19] = Candidozyma haemuli, 48 h, isolate LIP Ch5, planktonic, 48 h, 37°C, read-out: MIC
[20] = Candidozyma haemuli, 48 h, isolate LIP Ch9, planktonic, 48 h, 37°C, read-out: MIC
[21] = Candidozyma haemuli, 48 h, isolate LIP Ch11, planktonic, 48 h, 37°C, read-out: MIC
[22] = Candidozyma haemuli, geometric mean of three C. haemulonii var. vulnera isolates, read-out: GM-MIC

Row | Compound | MIC (C. haemulonii complex; [9]) [µM] | MIC (C. haemulonii complex; [10]) [µg/mL] | effect on planktonic fungal growth/viability (in words) (C. haemulonii complex) | Overall GM-bMIC ([1]; in μM) [µM] | Overall GM-bMIC [1] [mg/L] | CC50 at 48 h [2] [µg/mL] | GM-bMIC (Candida haemulonii [3]) | bMIC (Candida haemulonii [3]; isolate LIP Ch4) [mg/L] | bMIC (Candida haemulonii [3]; isolate LIP Ch7) [mg/L] | bMIC (Candida haemulonii [3]; isolate LIP Ch14) [mg/L] | GM-bMIC (Candida duobushaemulonii [4]) [mg/L] | bMIC (Candida duobushaemulonii [4]; isolate LIP Ch1) [mg/L] | bMIC (Candida duobushaemulonii [4]; isolate LIP Ch6) [mg/L] | bMIC (Candida duobushaemulonii [4]; isolate LIP Ch8) [mg/L] | GM-bMIC [5] [mg/L] | bMIC ([5]; isolate LIP Ch5) [mg/L] | bMIC ([5]; isolate LIP Ch9) [mg/L] | bMIC ([5]; isolate LIP Ch13) [mg/L] | MIC (Candida haemulonii [6]; [11]) [µg/mL] | MIC (Candida haemulonii [6]; [12]) [µg/mL] | also measured
1 | c1cnc2c(c1)ccc1cccnc12 [phen, 1,10-phenanthroline] | 5.16 | 0.93 | appreciably deterred fungal growth | 27.96 | 5.04 | 4.3 (≈ 23.9 µM) | 12.70 mg/L | 512 | 2 | 2 | 1 | 1 | 1 | 1 | 10.08 | 4 | 32 | 8 | 1 (≈ 5.55 µM) | 1 (≈ 5.55 µM) | activity of metal-free phen relative to phendione (C. haemulonii complex; planktonic, more active than phendione): ~ 2 fold; MIC (Candida haemulonii [6]; [13]): 1 µg/mL (≈ 5.55 µM); MIC (Candida haemulonii [6]; [14]): 1 µg/mL (≈ 5.55 µM); MIC (Candida duobushaemulonii [7]; [15]): 1 µg/mL (≈ 5.55 µM); MIC (Candida duobushaemulonii [7]; [16]): 1 µg/mL (≈ 5.55 µM); MIC (Candida duobushaemulonii [7]; [17]): 1 µg/mL (≈ 5.55 µM); MIC (Candida duobushaemulonii [7]; [18]): 1 µg/mL (≈ 5.55 µM); MIC [8, 19]: 1 µg/mL (≈ 5.55 µM); MIC [8, 20]: 1 µg/mL (≈ 5.55 µM); MIC [8, 21]: 0.5 µg/mL (≈ 2.77 µM); MIC [8, 22]: 0.79 µg/mL (≈ 4.38 µM)
2 | O=C1C(=O)c2cccnc2-c2ncccc21 [phendione, 1,10-phenanthroline-5,6-dione, reference compound] | 10.3 | 2.16 | appreciably deterred fungal growth | 76 | 14.67 | 2.02 (≈ 9.61 µM) | 11.31^* mg/L | >512 | 8 | 16 | 12.70 | 4 | 32 | 16 | 20.16 | 16 | 16 | 32 | 2 (≈ 9.52 µM) | 2 (≈ 9.52 µM) | MIC (Candida haemulonii [6]; [13]): 2 µg/mL (≈ 9.52 µM); MIC (Candida haemulonii [6]; [14]): 2 µg/mL (≈ 9.52 µM); MIC (Candida duobushaemulonii [7]; [15]): 2 µg/mL (≈ 9.52 µM); MIC (Candida duobushaemulonii [7]; [16]): 4 µg/mL (≈ 19 µM); MIC (Candida duobushaemulonii [7]; [17]): 2 µg/mL (≈ 9.52 µM); MIC (Candida duobushaemulonii [7]; [18]): 2.52 µg/mL (≈ 12 µM); MIC [8, 19]: 2 µg/mL (≈ 9.52 µM); MIC [8, 20]: 2 µg/mL (≈ 9.52 µM); MIC [8, 21]: 2 µg/mL (≈ 9.52 µM); MIC [8, 22]: 2 µg/mL (≈ 9.52 µM)
3 | {[Mn(3,6,9-tdda)(phen)2].3H2O.EtOH}n [compound 14] |  |  |  |  | 11.76 |  | 20.16 mg/L | 512 | 4 | 4 | 10.08 | 16 | 4 | 16 | 8 | 16 | 4 | 8 |  |  | Overall GM-MIC (C. haemulonii complex; geometric mean across all nine strains): 2.33 µg/mL; MIC (C. haemulonii complex; geometric mean across all nine strains, in μM): 3.15 µM; A549 (CC50) (A549 cells): 261.67 µg/mL; GM-MIC (Candida haemulonii [6]; geometric mean of three C. haemulonii isolates): 2 µg/mL; MIC (Candida haemulonii [6]; isolate LIP Ch4, planktonic, 48 h, 37°C): 2 µg/mL; MIC (Candida haemulonii [6]; isolate LIP Ch7, planktonic, 48 h, 37°C): 2 µg/mL; MIC (Candida haemulonii [6]; isolate LIP Ch12, planktonic, 48 h, 37°C): 2 µg/mL; GM-MIC (Candida duobushaemulonii [7]; geometric mean of three C. duobushaemulonii isolates): 3.17 µg/mL; MIC (Candida duobushaemulonii [7]; isolate LIP Ch1, planktonic, 48 h, 37°C): 4 µg/mL; MIC (Candida duobushaemulonii [7]; isolate LIP Ch6, planktonic, 48 h, 37°C): 4 µg/mL; MIC (Candida duobushaemulonii [7]; isolate LIP Ch8, planktonic, 48 h, 37°C): 2 µg/mL; GM-MIC ([8]; geometric mean of three C. haemulonii var. vulnera isolates): 2 µg/mL; MIC ([8]; isolate LIP Ch5, planktonic, 48 h, 37°C): 2 µg/mL; MIC ([8]; isolate LIP Ch9, planktonic, 48 h, 37°C): 2 µg/mL; MIC ([8]; isolate LIP Ch11, planktonic, 48 h, 37°C): 2 µg/mL

From publication PMC5504357, “Antifungal Potential of Copper(II), Manganese(II) and Silver(I) 1,10-Phenanthroline Chelates Against Multidrug-Resistant Fungal Species Forming the Candida haemulonii Complex: Impact on the Planktonic and Biofilm Lifestyles” (Frontiers in Microbiology, 2017)
